Measurements taken from patent US9060512B2, “Biocide compositions (III)” (Cognis IP Management GmbH, priority 2009, dated 2015).

Tests used:
[1] = test system: Hemp sesbania (Sesbania exaltata=Bayer Code=SEBEX); experiment: Weed control with glyphosate IPA salt, optionally with adjuvant; type: in vivo
Protocol: (§1) Two weeds, Velvet leaf (Abutilion theophrasti=Bayer Code: ABUTH) and Hemp sesbania (Sesbania exaltata=Bayer Code=SEBEX) were treated with a suboptimum rate of 270 g a.e./ha glyphosate IPA salt, optionally in the presence of N,N-Dimethyl levulinic acid amide as an adjuvant (spray volume: 200 l/ha) with three replications over a period of 21 days. Assessments took place for SEBEX after 10 and for ABUTH 20 days after treatment. The efficacy of the biocide/adjuvant composition was determined against a control where the number of weeds in a similar untreated area was set to 0%.

[2] = test system: Velvet leaf (Abutilion theophrasti=Bayer Code: ABUTH); experiment: as above; type: in vivo; conditions: 270 g/ha glyphosate IPA salt, spray volume 200 l/ha, 20 days after treatment, untreated area = 0%
Protocol: as §1

Row | Compound | SEBEX Control (weed control) ([1]; 270 g/ha glyphosate IPA salt, spray volume 200 l/ha, 10 days after treatment, untreated area = 0%) [%-rel.] | ABUTH Control (weed control) [2] [%-rel.] | weed control performance of glyphosate on addition of adjuvant ([1]; summary in words, SEBEX and ABUTH)
1 | CC(C)N.O=C(O)CNCP(=O)(O)O [C3, glyphosate IPA salt] | 50 | 82 | 
2 | CC(=O)CCC(=O)N(C)C [Example 6, Levulinic acid dimethylamide] |  |  | improves the weed control performance of glyphosate significantly
